{"source": "patent US9944602B2", "about": "“Piperidinone herbicides” (E. I. DU PONT DE NEMOURS AND COMPANY, priority 2014, dated 2018)", "assay_type_in_all_cases": "in vivo", "key": {"kochia (Kochia scoparia) [1]": {"system": "kochia (Kochia scoparia)", "experiment": "Test A postemergence kochia", "conditions": "Bassia scoparia, post-emergence, 240 h, 0 to 100 scale, 0 is no effect, 100 is complete control, read-out: Plant response rating, Kochia", "summary_of_the_method": "(§1)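 Plants were grown in a blend of loam soil and sand. For preemergence testing the soil was sprayed directly after seeding, while postemergence testing used seedlings 2–10 cm high at one to two leaves; all treatments were rated visually for injury (0–100) after ~10 d.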"}, "[2]": {"system": "sedge, umbrella (small-flower umbrella sedge, Cyperus difformis)", "experiment": "Test B flooded paddy test sedge, umbrella", "conditions": "Cyperus difformis, Table B, Flood, scale 0 to 100, read-out: Plant response rating", "summary_of_the_method": "(§2)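 Plants grown to the 2-leaf stage; pots flooded to 3 cm above soil at treatment, compound applied directly into paddy water, depth held throughout. Greenhouse 13 to 15 d, then visual evaluation against untreated controls.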"}, "[3]": {"system": "ragweed (common ragweed, Ambrosia elatior)", "experiment": "Test A preemergence ragweed", "conditions": "Ambrosia artemisiifolia, pre-emergence, 240 h, 0 to 100 scale, 0 no effect, 100 complete control, read-out: Ragweed plant response rating", "summary_of_the_method": "as §1"}, "[4]": {"system": "ducksalad (Heteranthera limosa)", "experiment": "Test B flooded paddy test ducksalad", "conditions": "Heteranthera limosa, Table B, Flood, scale 0 to 100, read-out: Plant response rating", "summary_of_the_method": "as §2"}, "[5]": {"system": "ryegrass, Italian (Italian ryegrass, Lolium multiflorum)", "experiment": "Test A preemergence ryegrass, Italian", "conditions": "Lolium multiflorum, pre-emergence, 240 h, 0 to 100 scale, 0 no effect, 100 complete control, read-out: Ryegrass, Italian plant response rating", "summary_of_the_method": "as §1"}, "[6]": {"system": "galium (catchweed bedstraw, Galium aparine)", "experiment": "Test A postemergence galium", "conditions": "Galium, post-emergence, 240 h, 0 to 100 scale, 0 is no effect, 100 is complete control, read-out: Plant response rating, Galium", "summary_of_the_method": "as §1"}, "[7]": {"system": "ryegrass, Italian (Italian ryegrass, Lolium multiflorum)", "experiment": "Test A postemergence ryegrass, Italian", "conditions": "Lolium multiflorum, post-emergence, 240 h, 0 to 100 scale, 0 is no effect, 100 is complete control, read-out: Plant response rating, Ryegrass, Italian", "summary_of_the_method": "as §1"}, "corn (Zea mays)": {"system": "corn (Zea mays)", "experiment": "Test A postemergence corn", "conditions": "Zea mays, post-emergence, 240 h, 0 to 100 scale, 0 is no effect, 100 is complete control", "summary_of_the_method": "as §1"}, "kochia (Kochia scoparia) [8]": {"system": "kochia (Kochia scoparia)", "experiment": "Test A preemergence kochia", "conditions": "Bassia scoparia, pre-emergence, 240 h, 0 to 100 scale, 0 no effect, 100 complete control, read-out: Kochia plant response rating", "summary_of_the_method": "as §1"}, "[9]": {"system": "wheat (Triticum aestivum)", "experiment": "Test A postemergence wheat", "conditions": "Triticum aestivum, post-emergence, 240 h, 0 to 100 scale, 0 is no effect, 100 is complete control, read-out: Plant response rating, Wheat", "summary_of_the_method": "as §1"}, "[10]": {"system": "barnyardgrass (Echinochloa crus-galli)", "experiment": "Test A preemergence barnyardgrass", "conditions": "0 to 100 scale", "summary_of_the_method": "as §1"}, "[11]": {"system": "foxtail, giant (giant foxtail, Setaria faberii)", "experiment": "Test A postemergence foxtail, giant", "conditions": "Setaria faberi, post-emergence, 240 h, 0 to 100 scale, 0 is no effect, 100 is complete control, read-out: Plant response rating, Foxtail, Giant", "summary_of_the_method": "as §1"}, "[12]": {"system": "barnyardgrass (Echinochloa crus-galli)", "experiment": "Test A postemergence barnyardgrass", "conditions": "Echinochloa crus-galli, post-emergence, 240 h, 0 to 100 scale, 0 is no effect, 100 is complete control, read-out: Plant response rating, Barnyardgrass", "summary_of_the_method": "as §1"}, "[13]": {"system": "ragweed (common ragweed, Ambrosia elatior)", "experiment": "Test A postemergence ragweed", "conditions": "Ambrosia artemisiifolia, post-emergence, 240 h, 0 to 100 scale, 0 is no effect, 100 is complete control, read-out: Plant response rating, Ragweed", "summary_of_the_method": "as §1"}, "rice (Oryza sativa)": {"system": "rice (Oryza sativa)", "experiment": "Test B flooded paddy test rice", "conditions": "Oryza sativa, Table B, Flood, scale 0 to 100, read-out: Plant response rating", "summary_of_the_method": "as §2"}, "[14]": {"system": "pigweed (Amaranthus retroflexus)", "experiment": "Test A preemergence pigweed", "conditions": "Amaranthus retroflexus, pre-emergence, 240 h, 0 to 100 scale, 0 no effect, 100 complete control, read-out: Pigweed plant response rating", "summary_of_the_method": "as §1"}, "[15]": {"system": "foxtail, giant (giant foxtail, Setaria faberii)", "experiment": "Test A preemergence foxtail, giant", "conditions": "Setaria faberi, pre-emergence, 240 h, 0 to 100 scale, 0 no effect, 100 complete control, read-out: Foxtail, Giant plant response rating", "summary_of_the_method": "as §1"}, "[16]": {"system": "barnyardgrass (Echinochloa crus-galli)", "experiment": "Test B flooded paddy test barnyardgrass", "conditions": "Echinochloa crus-galli, Table B, Flood, scale 0 to 100, read-out: Plant response rating", "summary_of_the_method": "as §2"}, "[17]": {"system": "blackgrass (Alopecurus myosuroides)", "experiment": "Test A postemergence blackgrass", "conditions": "Alopecurus myosuroides, post-emergence, 240 h, 0 to 100 scale, 0 is no effect, 100 is complete control, read-out: Plant response rating, Blackgrass", "summary_of_the_method": "as §1"}, "[18]": {"system": "pigweed (Amaranthus retroflexus)", "experiment": "Test A postemergence pigweed", "conditions": "Amaranthus retroflexus, post-emergence, 240 h, 0 to 100 scale, 0 is no effect, 100 is complete control, read-out: Plant response rating, Pigweed", "summary_of_the_method": "as §1"}}}
{"smiles": "O=C1NCCC(c2ccc(C(F)(F)F)cc2)C1C(=O)Nc1ccccc1F", "note": "(stereo not shown) [Compound 14, N-(2-fluorophenyl)-2-oxo-4-[4-(trifluoromethyl)phenyl]-3-piperidinecarboxamide]", "values": [{"measurement": "pest or weed control at 125 g/ha", "setting": "kochia (Kochia scoparia) [1]; 125 g ai/ha", "result": 0, "unit": "%"}, {"measurement": "pest or weed control at 500 g/ha", "setting": "kochia (Kochia scoparia) [1]; 500 g ai/ha", "result": 0, "unit": "%"}, {"measurement": "pest or weed control at 250 g/ha", "setting": "[2]; 250 g ai/ha", "result": 0, "unit": "%"}, {"measurement": "pest or weed control at 1000 g/ha", "setting": "[2]; 1000 g ai/ha", "result": 0, "unit": "%"}, {"measurement": "pest or weed control at 125 g/ha", "setting": "[3]; 125 g ai/ha", "result": 0, "unit": "%"}, {"measurement": "pest or weed control at 500 g/ha", "setting": "[3]; 500 g ai/ha", "result": 0, "unit": "%"}, {"measurement": "pest or weed control at 250 g/ha", "setting": "[4]; 250 g ai/ha", "result": 80, "unit": "%"}, {"measurement": "pest or weed control at 1000 g/ha", "setting": "[4]; 1000 g ai/ha", "result": 100, "unit": "%"}, {"measurement": "pest or weed control at 125 g/ha", "setting": "[5]; 125 g ai/ha", "result": 0, "unit": "%"}, {"measurement": "pest or weed control at 500 g/ha", "setting": "[5]; 500 g ai/ha", "result": 0, "unit": "%"}, {"measurement": "pest or weed control at 125 g/ha", "setting": "[6]; 125 g ai/ha", "result": 0, "unit": "%"}, {"measurement": "pest or weed control at 500 g/ha", "setting": "[6]; 500 g ai/ha", "result": 0, "unit": "%"}, {"measurement": "pest or weed control at 125 g/ha", "setting": "[7]; 125 g ai/ha", "result": 0, "unit": "%"}, {"measurement": "pest or weed control at 500 g/ha", "setting": "[7]; 500 g ai/ha", "result": 0, "unit": "%"}, {"measurement": "Corn plant response rating (crop injury, 0 = no effect, 100 = complete kill) at 125 g/ha", "setting": "corn (Zea mays); 125 g ai/ha", "result": 0, "unit": "%"}, {"measurement": "Corn plant response rating (crop injury, 0 = no effect, 100 = complete kill) at 500 g/ha", "setting": "corn (Zea mays); 500 g ai/ha", "result": 0, "unit": "%"}, {"measurement": "pest or weed control at 125 g/ha", "setting": "kochia (Kochia scoparia) [8]; 125 g ai/ha", "result": 0, "unit": "%"}, {"measurement": "pest or weed control at 500 g/ha", "setting": "kochia (Kochia scoparia) [8]; 500 g ai/ha", "result": 20, "unit": "%"}, {"measurement": "plant injury at 125 g/ha", "setting": "[9]; 125 g ai/ha", "result": 0, "unit": "%"}, {"measurement": "plant injury at 500 g/ha", "setting": "[9]; 500 g ai/ha", "result": 0, "unit": "%"}, {"measurement": "Plant response rating, Barnyardgrass", "setting": "[10]; 500 g ai/ha, 0 is no effect, 100 is complete control", "result": 90}, {"measurement": "pest or weed control at 125 g/ha", "setting": "[10]; Echinochloa crus-galli, pre-emergence, 240 h, 125 g ai/ha, 0 no effect, 100 complete control, read-out: Barnyardgrass plant response rating", "result": 50, "unit": "%"}, {"measurement": "pest or weed control at 125 g/ha", "setting": "[11]; 125 g ai/ha", "result": 30, "unit": "%"}, {"measurement": "pest or weed control at 500 g/ha", "setting": "[11]; 500 g ai/ha", "result": 90, "unit": "%"}, {"measurement": "pest or weed control at 125 g/ha", "setting": "[12]; 125 g ai/ha", "result": 20, "unit": "%"}, {"measurement": "pest or weed control at 500 g/ha", "setting": "[12]; 500 g ai/ha", "result": 90, "unit": "%"}, {"measurement": "pest or weed control at 125 g/ha", "setting": "[13]; 125 g ai/ha", "result": 0, "unit": "%"}, {"measurement": "pest or weed control at 500 g/ha", "setting": "[13]; 500 g ai/ha", "result": 0, "unit": "%"}, {"measurement": "plant injury at 250 g/ha", "setting": "rice (Oryza sativa); 250 g ai/ha", "result": 0, "unit": "%"}, {"measurement": "plant injury at 1000 g/ha", "setting": "rice (Oryza sativa); 1000 g ai/ha", "result": 0, "unit": "%"}, {"measurement": "pest or weed control at 125 g/ha", "setting": "[14]; 125 g ai/ha", "result": 0, "unit": "%"}, {"measurement": "pest or weed control at 500 g/ha", "setting": "[14]; 500 g ai/ha", "result": 0, "unit": "%"}, {"measurement": "pest or weed control at 125 g/ha", "setting": "[15]; 125 g ai/ha", "result": 30, "unit": "%"}, {"measurement": "pest or weed control at 500 g/ha", "setting": "[15]; 500 g ai/ha", "result": 90, "unit": "%"}, {"measurement": "pest or weed control at 250 g/ha", "setting": "[16]; 250 g ai/ha", "result": 30, "unit": "%"}, {"measurement": "pest or weed control at 1000 g/ha", "setting": "[16]; 1000 g ai/ha", "result": 30, "unit": "%"}, {"measurement": "pest or weed control at 125 g/ha", "setting": "[17]; 125 g ai/ha", "result": 0, "unit": "%"}, {"measurement": "pest or weed control at 500 g/ha", "setting": "[17]; 500 g ai/ha", "result": 0, "unit": "%"}, {"measurement": "pest or weed control at 125 g/ha", "setting": "[18]; 125 g ai/ha", "result": 0, "unit": "%"}, {"measurement": "pest or weed control at 500 g/ha", "setting": "[18]; 500 g ai/ha", "result": 0, "unit": "%"}]}
